Assay results: patent US20080051420A1, “New Compounds 317” (AstraZeneca AB, priority 2006, published 2008)

molecular target: T1, human β-secretase (Homo sapiens, UniProt P56817); test: TR-FRET assay (β-secretase enzyme, sBACE-Fc); type: biochemical; settings: read-out: IC50 in TR-FRET assay
T1 construct: The soluble part of the human β-secretase (AA 1-AA 460) was cloned; made in house
Description: The enzyme used in the IGEN Cleavage-, Fluorescent-, TR-FRET- and BiaCore assays is described as follows:
The soluble part of the human β-secretase (AA 1-AA 460) was cloned into the ASP2-F10-1-IRES-GFP-neoK mammalian expression vector. The gene was fused to the Fc domain of IgG1 (affinity tag) and stably cloned into HEK 293 cells. Purified sBACE-Fc is stored in Tris buffer, pH 9.2 and has a purity of 95%.
Enzyme was diluted to 6 μg/mL and the substrate (Europium)[…](Qsy7) to 200 nM in reaction buffer (NaAcetate, chaps, triton x-100, EDTA pH 4.5). Compounds were diluted to the desired concentration in dimethyl sulfoxide (final dimethyl sulfoxide concentration in assay is 5%). […] Enzyme (9 μL) and 1 μL of compound in dimethyl sulfoxide was added to the plate, mixed and pre-incubated for 10 min. Substrate (10 μL) was added and the reaction proceeded in the dark for 15 min at RT. The reaction was stopped with the addition of 7 μL NaAcetate, pH 9. […] The dimethyl sulfoxide control defined the 100% activity level and 0% activity was defined by exclusion of the enzyme (using reaction buffer instead).

T1 sequence (P56817 22-460): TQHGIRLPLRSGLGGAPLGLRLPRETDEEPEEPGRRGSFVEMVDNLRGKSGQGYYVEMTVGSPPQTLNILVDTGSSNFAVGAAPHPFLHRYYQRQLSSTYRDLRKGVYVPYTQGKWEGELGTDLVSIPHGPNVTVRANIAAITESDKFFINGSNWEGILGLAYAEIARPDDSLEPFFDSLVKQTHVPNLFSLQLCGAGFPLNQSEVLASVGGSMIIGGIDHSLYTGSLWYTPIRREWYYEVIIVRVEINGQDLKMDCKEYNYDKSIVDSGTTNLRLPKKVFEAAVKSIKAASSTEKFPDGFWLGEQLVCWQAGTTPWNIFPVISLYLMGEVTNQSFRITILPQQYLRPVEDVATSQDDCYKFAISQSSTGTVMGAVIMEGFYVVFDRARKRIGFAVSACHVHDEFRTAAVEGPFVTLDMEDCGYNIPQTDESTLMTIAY

| Compound | IC50 [nM] |
| --- | --- |
| CS(=O)(=O)Oc1ccc(C2(c3cccc(-c4cccnc4F)c3)N=C(N)N3CCN=C32)cc1 (centres unmarked) [Example 78, 4-{5-Amino-7-[3-(2-fluoropyridin-3-yl)phenyl]-2,7-dihydro-3H-imidazo[1,5-a]imidazol-7-yl}phenyl methanesulfonate 0.5 acetate] | 844 |
| CS(=O)(=O)Oc1ccc(C2(c3cccc(-c4cc(Cl)cnc4F)c3)N=C(N)N3CCN=C32)cc1 (centres unmarked) [Example 79, 4-{5-Amino-7-[3-(5-chloro-2-fluoropyridin-3-yl)phenyl]-2,7-dihydro-3H-imidazo[1,5-a]imidazol-7-yl}phenyl methanesulfonate 0.5 acetate] | 436 |
| COc1cccc(-c2cccc(C3(c4ccc(OS(=O)(=O)C(C)C)cc4)N=C(N)N4CCN=C43)c2)c1 (centres unmarked) [Example 80, 4-[5-Amino-7-(3′-methoxybiphenyl-3-yl)-2,7-dihydro-3H-imidazo[1,5-a]imidazol-7-yl]phenyl propane-2-sulfonate 0.5 acetate] | 1380 |
| CC(C)S(=O)(=O)Oc1ccc(C2(c3cccc(-c4cc(Cl)cc(Cl)c4)c3)N=C(N)N3CCN=C32)cc1 (centres unmarked) [Example 81, 4-[5-Amino-7-(3′,5′-dichlorobiphenyl-3-yl)-2,7-dihydro-3H-imidazo[1,5-a]imidazol-7-yl]phenyl propane-2-sulfonate 0.5 acetate] | 417 |
| CC(C)S(=O)(=O)Oc1ccc(C2(c3cccc(-c4cccc(Cl)c4)c3)N=C(N)N3CCN=C32)cc1 (centres unmarked) [Example 82, 4-[5-Amino-7-(3′-chlorobiphenyl-3-yl)-2,7-dihydro-3H-imidazo[1,5-a]imidazol-7-yl]phenyl propane-2-sulfonate 0.5 acetate] | 484 |
| CC(C)S(=O)(=O)Oc1ccc(C2(c3cccc(-c4cccnc4)c3)N=C(N)N3CCN=C32)cc1 (centres unmarked) [Example 83, 4-[5-Amino-7-(3-pyridin-3-ylphenyl)-2,7-dihydro-3H-imidazo[1,5-a]imidazol-7-yl]phenyl propane-2-sulfonate 0.75 acetate] | 2510 |
| CC(C)S(=O)(=O)Oc1ccc(C2(c3cccc(-c4cccnc4F)c3)N=C(N)N3CCN=C32)cc1 (centres unmarked) [Example 84, 4-{5-Amino-7-[3-(2-fluoropyridin-3-yl)phenyl]-2,7-dihydro-3H-imidazo[1,5-a]imidazol-7-yl}phenyl propane-2-sulfonate 0.75 acetate] | 2510 |
| COc1cncc(-c2cccc(C3(c4ccc(OS(=O)(=O)C(C)C)cc4)N=C(N)N4CCN=C43)c2)c1 (centres unmarked) [Example 85, 4-{5-Amino-7-[3-(5-methoxypyridin-3-yl)phenyl]-2,7-dihydro-3H-imidazo[1,5-a]imidazol-7-yl}phenyl propane-2-sulfonate 0.5 acetate] | 1030 |
| NC1=NC(c2ccc(OS(=O)(=O)C(F)(F)F)cc2)(c2cccc(-c3cccc(Cl)c3)c2)C2=NCCN12 (centres unmarked) [Example 90, 4-[5-Amino-7-(3′-chlorobiphenyl-3-yl)-2,7-dihydro-3H-imidazo[1,5-a]imidazol-7-yl]phenyl trifluoromethanesulfonate 0.75 acetate] | 113 |
| NC1=NC(c2ccccc2)(c2cccc(Br)c2)C2=NCCCN12 (centres unmarked) [Example 98, 8-(3-Bromophenyl)-8-phenyl-2,3,4,8-tetrahydroimidazo[1,5-a]pyrimidin-6-amine] | 727 |
| NC1=NC(c2cccc(Br)c2)(c2cccc(OS(=O)(=O)C(F)(F)F)c2)C2=NCCCN12 (centres unmarked) [Example 113, 3-[6-Amino-8-(3-bromophenyl)-2,3,4,8-tetrahydroimidazo[1,5-a]pyrimidin-8-yl]phenyl trifluoromethanesulfonate] | 1200 |
| CS(=O)(=O)Oc1cccc(C2(c3cccc(-c4cc(C(F)(F)F)cc(C(F)(F)F)c4)c3)N=C(N)N3CCCN=C32)c1 (centres unmarked) [Example 114, 3-{6-Amino-8-[3′,5′-bis(trifluoromethyl)biphenyl-3-yl]-2,3,4,8-tetrahydroimidazo[1,5-a]pyrimidin-8-yl}phenyl methanesulfonate] | 246 |
| NC1=NC(c2cccc(OS(=O)(=O)C(F)(F)F)c2)(c2cccc(-c3cccc(Cl)c3)c2)C2=NCCCN12 (centres unmarked) [Example 115, 3-[6-Amino-8-(3′-chlorobiphenyl-3-yl)-2,3,4,8-tetrahydroimidazo[1,5-a]pyrimidin-8-yl]phenyl trifluoromethanesulfonate] | 106 |

Other lines, results leading:

| IC50 [nM] | Compound |
| --- | --- |
| 285 | CS(=O)(=O)Oc1cccc(C2(c3cccc(-c4cc(Cl)cc(Cl)c4)c3)N=C(N)N3CCCN=C32)c1 (centres unmarked) [Example 116, 3-[6-Amino-8-(3′,5′-dichlorobiphenyl-3-yl)-2,3,4,8-tetrahydroimidazo[1,5-a]pyrimidin-8-yl]phenyl methanesulfonate] |
| 252 | CS(=O)(=O)Oc1cccc(C2(c3cccc(-c4cccc(Cl)c4)c3)N=C(N)N3CCCN=C32)c1 (centres unmarked) [Example 117, 3-[6-Amino-8-(3′-chlorobiphenyl-3-yl)-2,3,4,8-tetrahydroimidazo[1,5-a]pyrimidin-8-yl]phenyl methanesulfonate] |
| 645 | COc1cccc(-c2cccc(C3(c4cccc(OS(C)(=O)=O)c4)N=C(N)N4CCCN=C43)c2)c1 (centres unmarked) [Example 118, 3-[6-Amino-8-(3′-methoxybiphenyl-3-yl)-2,3,4,8-tetrahydroimidazo[1,5-a]pyrimidin-8-yl]phenyl methanesulfonate] |
| 754 | CS(=O)(=O)Oc1cccc(C2(c3cccc(-c4cccnc4)c3)N=C(N)N3CCCN=C32)c1 (centres unmarked) [Example 119, 3-[6-Amino-8-(3-pyridin-3-ylphenyl)-2,3,4,8-tetrahydroimidazo[1,5-a]pyrimidin-8-yl]phenyl methanesulfonate] |
| 272 | CS(=O)(=O)Oc1cccc(C2(c3cccc(-c4cncnc4)c3)N=C(N)N3CCCN=C32)c1 (centres unmarked) [Example 120, 3-[6-Amino-8-(3-pyrimidin-5-ylphenyl)-2,3,4,8-tetrahydroimidazo[1,5-a]pyrimidin-8-yl]phenyl methanesulfonate] |
| 893 | CS(=O)(=O)Oc1cccc(C2(c3cccc(-c4cc(Cl)cnc4F)c3)N=C(N)N3CCCN=C32)c1 (centres unmarked) [Example 121, 3-{6-Amino-8-[3-(5-chloro-2-fluoropyridin-3-yl)phenyl]-2,3,4,8-tetrahydroimidazo[1,5-a]pyrimidin-8-yl}phenyl methanesulfonate] |
| 69 | Cc1cc(C)cc(-c2cccc(C3(c4cccc(OS(C)(=O)=O)c4)N=C(N)N4CCCN=C43)c2)c1 (centres unmarked) [Example 122, 3-[6-Amino-8-(3′,5′-dimethylbiphenyl-3-yl)-2,3,4,8-tetrahydroimidazo[1,5-a]pyrimidin-8-yl]phenyl methanesulfonate] |
| 106 | CCCS(=O)(=O)Oc1cccc(C2(c3cccc(-c4cc(Cl)cc(Cl)c4)c3)N=C(N)N3CCCN=C32)c1 (centres unmarked) [Example 123, 3-[6-Amino-8-(3′,5′-dichlorobiphenyl-3-yl)-2,3,4,8-tetrahydroimidazo[1,5-a]pyrimidin-8-yl]phenyl propane-1-sulfonate] |
| 528 | CCCS(=O)(=O)Oc1cccc(C2(c3cccc(-c4cccc(OC)c4)c3)N=C(N)N3CCCN=C32)c1 (centres unmarked) [Example 124, 3-[6-Amino-8-(3′-methoxybiphenyl-3-yl)-2,3,4,8-tetrahydroimidazo[1,5-a]pyrimidin-8-yl]phenyl propane-1-sulfonate] |
| 51 | CCCS(=O)(=O)Oc1cccc(C2(c3cccc(-c4cncnc4)c3)N=C(N)N3CCCN=C32)c1 (centres unmarked) [Example 125, 3-[6-Amino-8-(3-pyrimidin-5-ylphenyl)-2,3,4,8-tetrahydroimidazo[1,5-a]pyrimidin-8-yl]phenyl propane-1-sulfonate] |
